Data reported in publication PMC3202625, “Pyruvate Kinase Triggers a Metabolic Feedback Loop that Controls Redox Metabolism in Respiring Cells” (Cell Metabolism, 2011).

Assays:
[1] = molecular target: T1, yeast TPI (endogenous) (Saccharomyces cerevisiae, UniProt P00942); test: TPI activity assay, PEP titration; type: cell-based; conditions: substrate gly3p, yeast extract
T1 construct: gene TPI1; endogenous full-length enzyme in yeast extract, activity normalized to total cellular protein; homodimer
T1 sequence (P00942 2-248): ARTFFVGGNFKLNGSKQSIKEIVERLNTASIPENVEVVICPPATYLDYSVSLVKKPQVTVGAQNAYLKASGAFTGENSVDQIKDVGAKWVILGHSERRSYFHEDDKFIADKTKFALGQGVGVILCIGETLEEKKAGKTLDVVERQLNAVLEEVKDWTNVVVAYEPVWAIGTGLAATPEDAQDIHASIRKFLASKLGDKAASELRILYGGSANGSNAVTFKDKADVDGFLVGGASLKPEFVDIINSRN
Text: TPI activity assay, PEP titration on yeast TPI (endogenous) | IC50 values and the inhibitory constant Ki are given in μM

[2] = molecular target: T2, rabbit TPI (purified from muscle) (Oryctolagus cuniculus, UniProt P00939); test: TPI activity assay, PEP titration; type: biochemical
T2 construct: gene TPI1; native enzyme purified from rabbit muscle; homodimer
T2 sequence (P00939 2-249): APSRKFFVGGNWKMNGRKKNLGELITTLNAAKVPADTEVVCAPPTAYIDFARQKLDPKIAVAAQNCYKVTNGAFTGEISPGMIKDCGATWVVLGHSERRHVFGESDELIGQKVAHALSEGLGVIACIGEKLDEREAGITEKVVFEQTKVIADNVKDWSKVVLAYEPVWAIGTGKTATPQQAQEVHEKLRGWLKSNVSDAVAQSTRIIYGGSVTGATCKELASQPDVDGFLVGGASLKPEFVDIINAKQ
Text: TPI activity assay, PEP titration on rabbit TPI (purified from muscle) | IC50 values and the inhibitory constant Ki are given in μM

[3] = molecular target: T3, human TPI (expressed in yeast) (Homo sapiens, UniProt P60174); test: TPI activity assay, PEP titration; type: cell-based
T3 construct: gene TPI1; human TPI expressed in transgenic yeast lacking endogenous TPI1; extract, activity normalized to total cellular protein; homodimer
T3 sequence (P60174 2-249): as the sequence (P00939 2-249) above, with K19Q, N20S, T26G, S118A counted along it
Text: TPI activity assay, PEP titration on human TPI (expressed in yeast) | IC50 values and the inhibitory constant Ki are given in μM

[4] = molecular target: T1, yeast TPI (endogenous); test: TPI activity assay, PEP titration; Ki by Cheng-Prusoff equation; type: biochemical; conditions: substrate gly3p, yeast extract
[5] = molecular target: T3, human TPI (expressed in yeast); test: as above; type: biochemical
[6] = molecular target: T2, rabbit TPI (purified from muscle); test: as above; type: biochemical
[7] = molecular target: T1, yeast TPI (endogenous); test: TPI activity assay, Michaelis-Menten kinetics; type: biochemical; conditions: yeast extract, no PEP

Row | IC50 [1] | IC50 [2] | IC50 [3] | Ki [4] | Ki [5] | Ki [6] | Compound | Km [7]
1 | 1.13 mM | 515 µM | 531 µM | 392 µM | 163 µM | 156 µM | C=C(OP(=O)(O)O)C(=O)O [PEP] | –
2 | – | – | – | – | – | – | O=C[C@H](O)COP(=O)(O)O [gly3p] | 854 µM
